Results as given in US20190242874A1, “HUMAN EPITHELIAL CELL LINE FOR 3-D MODELIZING OF CANCER AND TREATMENT THEREOF” (GALDERMA RESEARCH & DEVELOPMENT, priority 2011, published 2019).

Tests used:
[1] = tested on: KNBCCS6 E6/E7 immortalized keratinocytes; experiment: Organotypic skin reconstruction: epidermal invasion of KNBCCS6 E6/E7 keratinocytes into dermal equivalent of NBCCS6 fibroblasts (histology); type: cell-based, human; conditions: 10 mM inhibitor, 0.1% DMSO, added 24 hrs before raising at air-liquid interface; compared with FIG. 4A control (FIG. 4B, 4C)
Procedure: Organotypic skin reconstruction using KNBCCS E6/E7 was performed using standard protocols as described in (Bernerd et al., 2001). In brief 10^6 NBCCS6 primary fibroblasts cultured in standard culture medium as described above were embeded in a bovine collagen I lattice. After contraction (48 hrs) lattices were fixed on platic using a collagen glue, KNBCCS6 were then seeded (50 000 cells per lattice) within a stainless ring, left for 6 days in immersion; the day 6) before emersion (day 7), mounts were treated with appropriate concentration of SHH:PTCH pathway inhibitor with a final a 0.1% DMSO concentration until the end of experiment. Control cultures were treated with 0.1% DMSO. After 7 days of emersion at air-liquid interface, cultures were harvested for subsequent analyses including histology and assessment of tacer/reporter gene activity. (FIG. 3 and FIG. 4)
FIGS. 4B, 4C show the same as FIG. 4A, except that organotypic skin cultures were grown 24 hrs before being raised at air-liquid interface in the presence ce of […] of GDC-0449 (B) or […] (SANT1) SHH/PTCH pathway inhibitors.

[2] = tested on: SHH/PTCH signaling pathway; experiment: Response of the immortalized keratinocyte cell line to SHH/PTCH pathway agonist and antagonists; type: cell-based, human; conditions: conclusion statement; no concentration given
Procedure: Purmorphamine (SMO agonist) and GDC-0449 (SMO antagonist) were diluted in DMSO at stock concentrations of 50 mM and 10 mM, respectively. To avoid side effects and toxicity, the final concentration of DMSO was fixed to 0.1% DMSO.
Theses cells can be expanded in a simple defined medium and they can grow easily due to immortalization. This tool is 3D organotypic culture system to evaluate the efficacy of anti-tumoral molecules specifically targeting inappropriate activation of the SHH/PTCH pathway occurring in BCC but also in numerous non BCC cancers including other cancer implicating inappropriate activation of the SHH/PTCH pathway. Assessment of inhibitor efficacy is applicable in the long term by skin regeration in vivo using animal vector including the mouse or the mini pig sytems.

Row | SMILES | size and frequency of epidermal invasion [1] | effect on SHH/PTCH signaling pathway in immortalized human keratinocyte cell line [2]
1 | CS(=O)(=O)c1ccc(C(=O)Nc2ccc(Cl)c(-c3ccccn3)c2)c(Cl)c1 [GDC-0449] | substantially decreased | inhibition of the activation
2 | Cc1nn(-c2ccccc2)c(C)c1/C=N/N1CCN(Cc2ccccc2)CC1 [SANT1] | substantially decreased | inhibition of the activation
3 | c1ccc2c(Oc3nc(Nc4ccc(N5CCOCC5)cc4)c4ncn(C5CCCCC5)c4n3)cccc2c1 [purmorphamine, Purmorphamine] | – | activation
